# In patent publication US9717708B1, “Process for preparing ertapenem-containing lyophilized formulation” (DAEWOONG PHARMACEUTICAL CO., LTD., priority 2014, dated 2017):
# Columns and labels:
# [1] = Purity (HPLC) before and after lyophilization and during storage, lyophilized formulation containing meropenem trihydrate; assay type: physicochemical; conditions: lyophilized formulations containing meropenem
# Protocol: (§1) Hydroxypropyl β-cyclodextrin (HP-β-CD) [MS=0.65, 2.76 g (1.0 eq.)] was dissolved in distilled water (16 mL). After cooling the solution to 0˜5° C., 10 portions of ertapenem monosodium salt (1 g in total, each portion having the same amount) were sequentially added to the solution for 60 minutes, while maintaining pH 7.8 with a 2N NaOH solution. The resulting solution was sterile-filtered at 0˜5° C., filled in a vial, and then lyophilized as follows: The filled vial was located on the shelf of a lyophilizer pre-cooled to −40° C. and then cooled for 3 hours. Vacuum (80 mTorr) was applied to the shelf, which was then heated to −20° C. at the rate of 0.5° C./min. The shelf was maintained under the conditions of −20° C. and 80 mTorr for 48 hours. The shelf was heated to 10° C. at the rate of 0.1° C./min and then to 40° C. at the rate of 0.5° C./min. […]
# (§2) We evaluated whether or not hydroxypropyl β-cyclodextrin can also function both as a cryoprotective agent and as a stabilizing agent in the lyophilized formulations containing carbapenem antibiotics other than ertapenem. […] The purities before the lyophilization, the purities right after the lyophilization, and the purities of the lyophilized formulations which were respectively stored at low temperature (−20° C.), at room temperature, and under the accelerated (40° C., RH75%) condition for 4 weeks were respectively measured with a HPLC. […]
# [2] = Purity (HPLC) before and after lyophilization and during storage, lyophilized formulation containing doripenem monohydrate; assay type: physicochemical; conditions: lyophilized formulations containing doripenem
# Protocol: as §1, §2
Structure (SMILES),function of hydroxypropyl β-cyclodextrin as cryoprotective and stabilizing agent [1],function of hydroxypropyl β-cyclodextrin as cryoprotective and stabilizing agent [2]
"C[C@@H](O)[C@H]1C(=O)N2C(C(=O)O)=C(S[C@@H]3CN[C@H](C(=O)N(C)C)C3)[C@H](C)[C@H]12 [meropenem, meropenem trihydrate]",did not function as a cryoprotective agent nor as a stabilizing agent,–
"C[C@@H](O)[C@H]1C(=O)N2C(C(=O)O)=C(S[C@@H]3CN[C@H](CNS(N)(=O)=O)C3)[C@H](C)[C@H]12 [doripenem, doripenem monohydrate]",–,did not function as a cryoprotective agent nor as a stabilizing agent
